From PubChem BioAssay AID493130 (Broad Institute, 2011)
Inconclusive results are not listed. Active and inactive are the calls of the source.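 The calls were made as follows: active = signal-lowering compounds whose fitted half-maximal concentration is at most ten times their highest tested dose; inconclusive = flat fit between -30 and -70%, or poor fit; inactive = flat within 30%, signal rising, or potency beyond limit.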

Biological target: POS-1 (Caenorhabditis elegans) binding to mex-3 RNA
Experiment: inhibitors of POS-1/mex-3 RNA binding, dose response, counter-screen for MEX-5 RNA-binding inhibitor project, biochemical, fluorescence polarization, cherry-picked samples, set 2 (AID 493130);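 also: POS-1 as maltose binding protein fusion made in E. coli with FITC RNA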;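 as to activity change, negative = inhibition: 0% = DMSO neutral wells and -100% = excess unlabeled mex3 competitor RNA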
Settings: POS-1/mex-3 RNA fluorescence polarization, 1 h

Compound	AC50 [µM]
Cc1ccc(C)n1-c1sccc1C(=O)O	6.08
Brc1ccc(C2=CC(c3cccs3)n3ncnc3N2)cc1 (stereo unspecified)	1.4
Cc1ccc(-c2cc(C(=O)Nc3ccc(S(=O)(=O)Nc4ncccn4)cc3)[nH]n2)c(O)c1C	5.29
CCCCOc1ccc2c(c1)/C(=C(\C(Cl)=C(Cl)Cl)[N+](=O)[O-])N2	8.54

Same assay, conditions: POS-1/mex-3 RNA fluorescence polarization, 1 h; at 10 µM (top of the series)

Compound	activity change, negative = inhibition
COCC(C)N1CCC(Oc2cccc(C(=O)NCCc3ccccc3)c2)CC1 (stereo unspecified)	inactive
Cn1c(O)c(C2=c3ccccc3=NC2=O)[nH]c1=S	inactive
O=C1OC2(CCCC2)OC(=O)C1=Cc1c[nH]c2ccccc12	inactive
CSc1nsc2nc(=O)c(/C=C3\C(C)=Nc4ccc(C)cc43)c(N)n12	inactive
CCc1cccc2cc3c(N)c(C(=O)Nc4ccc(S(=O)(=O)N5CCCC5)cc4)sc3nc12	inactive
CCc1nnc(NC(=O)CCN2C(=O)/C(=C/c3cc(OC)c(OC)c(OC)c3)SC2=S)s1	inactive
CC(=O)CCS(=O)(=O)c1ccc(Oc2ccc(S(=O)(=O)CCC(C)=O)cc2)cc1	inactive
CC(=O)c1cc(NC(=O)c2ccc(C)cc2)c(=O)oc1C	inactive
CC1(N2CCOCC2)CC2(O)C(=[N+]1[O-])CCc1c2no[n+]1[O-] (stereo unspecified)	inactive
Nc1nc(N)c2[nH]cnc2n1	inactive
CCC(=O)N(CC)C1=C(O)c2ccccc2C(=O)C1=O	inactive
Cc1ccc(C(=O)N/C(=C\c2ccc(-c3ccc(Cl)cc3)o2)C(=O)NCCCN(C)C)cc1	inactive
CCc1nnc2c(N(C)C)nc3ccccc3n12	inactive
O=C(O)c1ccc(N2C(=O)c3cccc4c(C(=O)O)ccc(c34)C2=O)cc1	inactive
Cc1ccc(S(=O)(=O)c2cc3c(=O)n4cccc(C)c4nc3n(C3CCCCC3)c2=N)cc1	inactive
CCOC(=O)NNc1ccc2nonc2c1[N+](=O)[O-]	inactive

Compound	activity change, negative = inhibition
Cc1cccc(/C=C(\C#N)C(=O)Nc2ccccn2)c1	inactive
COc1cc(N2CCCC2)c(OC)cc1/C=C(/C#N)c1cccc(Br)c1	inactive
O=C(/C=C(\O)c1ccccc1)C(=O)NNC(=O)c1ccccc1	inactive
COc1ccccc1-c1cn[nH]c1-c1ccc(O)cc1O	inactive
CCN(CC)CCOc1ccc2c(c1)C(=NNC(=O)c1ccccn1)c1cc(OCCN(CC)CC)ccc1-2	inactive
O=C(NN=C1C2CC3CC1CC(Cl)(C3)C2)c1ccccn1	inactive
C=CCn1c(O)c(N=NC(=O)CNC(=O)/C=C/c2ccco2)c2ccccc21	inactive
Nc1ccc2oc(-c3ccccc3Cl)cc(=O)c2c1O	inactive
Cc1ccccc1C(=O)N=c1ccn(-c2nc3ccccc3nc2NS(=O)(=O)c2ccccc2)cc1	inactive
Nc1c(C(=O)Nc2cccc(Cl)c2Cl)sc2nc(-c3cccnc3)ccc12	inactive
COC(=O)c1ccc(-c2ccc(C(c3c(C)[nH][nH]c3=O)c3c(C)[nH][nH]c3=O)o2)cc1	inactive
CCOC(=O)c1c(-c2ccccc2)oc2ccc(OCC(=O)NNC(=O)CCC(=O)O)cc12	inactive
O=c1c2ccccc2nc(/C=C/c2ccc([N+](=O)[O-])cc2)n1CCCO	inactive
N[C@@H](Cc1ccccc1)C(=O)N1CCC(C(=O)NCC(=O)Nc2ccc(F)cc2)CC1	inactive
O=C(O)COc1ccc(Br)cc1C(c1c(C(=O)O)[nH]c2ccccc12)c1c(C(=O)O)[nH]c2ccccc12	inactive
COc1ccc(C2NC(=O)N(CCCC(=O)O)C(C)=C2C(=O)OCc2ccccc2)cc1 (stereo unspecified)	inactive
